Test results: the NIST ThermoML archive (doi:10.1021/acs.jced.5b00197)
Numbers after ± are expanded uncertainties.

How the values were obtained:
[1] = 96.64 kPa, Liquid, mechanical oscillator
[2] = refractive index (other wavelength) (dimensionless); conditions: 94.64 kPa, Liquid, Standard Abbe refractometry
[3] = refractive index (Na D-line) (dimensionless); conditions: 94.64 kPa, Liquid, Standard Abbe refractometry
[4] = refractive index (Na D-line) (dimensionless); xn = mol fraction of the nth substance listed; conditions: 94.64 kPa, Liquid, Standard Abbe refractometry, x2 = 0
[5] = refractive index (other wavelength) (dimensionless); xn = mol fraction of the nth substance listed; conditions: 94.64 kPa, Liquid, Standard Abbe refractometry, x2 = 0
[6] = xn = mol fraction of the nth substance listed; conditions: 96.64 kPa, Liquid, mechanical oscillator, x2 = 0

Cc1ccccc1 [toluene]
Conditions | mass density, 293.15 K [kg/m3] | mass density, 298.15 K [kg/m3] | mass density, 303.15 K [kg/m3] | refractive index, 293.15 K | refractive index, 298.15 K | refractive index, 303.15 K
[1] | 866.75 ± 4 | 861.74 ± 4 | 856.81 ± 4 | – | – | –
[3] | – | – | – | 1.49687 ± 0.0004 | 1.49406 ± 0.0004 | 1.49124 ± 0.0004

refractive index, [2]
Conditions | Wavelength=404.7 nm | Wavelength=435.8 nm | Wavelength=486.1 nm | Wavelength=546.1 nm | Wavelength=587.6 nm | Wavelength=632.8 nm | Wavelength=644 nm | Wavelength=706.5 nm
293.15 K | 1.52597 ± 0.00048 | 1.51768 ± 0.00045 | 1.50826 ± 0.00043 | 1.50069 ± 0.00042 | 1.497 ± 0.00041 | 1.49379 ± 0.00041 | 1.49306 ± 0.00041 | 1.48975 ± 0.0004
298.15 K | 1.52295 ± 0.00048 | 1.51473 ± 0.00045 | 1.50537 ± 0.00043 | 1.49785 ± 0.00042 | 1.49419 ± 0.00041 | 1.49101 ± 0.00041 | 1.49028 ± 0.00041 | 1.48697 ± 0.0004
303.15 K | 1.51996 ± 0.00048 | 1.51177 ± 0.00045 | 1.50248 ± 0.00043 | 1.495 ± 0.00042 | 1.49137 ± 0.00041 | 1.4882 ± 0.00041 | 1.48748 ± 0.00041 | 1.48419 ± 0.0004

CC(=O)O [acetic acid]
Conditions | mass density, 293.15 K [kg/m3] | mass density, 298.15 K [kg/m3] | mass density, 303.15 K [kg/m3] | refractive index, 293.15 K | refractive index, 298.15 K | refractive index, 303.15 K
[1] | 1049.63 ± 4 | 1043.57 ± 4 | 1037.64 ± 4 | – | – | –
[3] | – | – | – | 1.37224 ± 0.00036 | 1.37012 ± 0.00036 | 1.36809 ± 0.00036

refractive index, [2]
Conditions | Wavelength=404.7 nm | Wavelength=435.8 nm | Wavelength=486.1 nm | Wavelength=546.1 nm | Wavelength=587.6 nm | Wavelength=632.8 nm | Wavelength=644 nm | Wavelength=706.5 nm
293.15 K | 1.38345 ± 0.00037 | 1.38034 ± 0.00037 | 1.37681 ± 0.00037 | 1.37386 ± 0.00036 | 1.3723 ± 0.00036 | 1.37087 ± 0.00036 | 1.37055 ± 0.00036 | 1.36896 ± 0.00036
298.15 K | 1.38126 ± 0.00037 | 1.37816 ± 0.00037 | 1.37466 ± 0.00037 | 1.37174 ± 0.00036 | 1.37018 ± 0.00036 | 1.36876 ± 0.00036 | 1.36844 ± 0.00036 | 1.36686 ± 0.00036
303.15 K | 1.37917 ± 0.00037 | 1.37611 ± 0.00037 | 1.37261 ± 0.00037 | 1.36968 ± 0.00036 | 1.36815 ± 0.00036 | 1.36675 ± 0.00036 | 1.36643 ± 0.00036 | 1.36485 ± 0.00036

O [water]
Conditions | mass density, 298.15 K [kg/m3] | mass density, 303.15 K [kg/m3] | refractive index, 293.15 K | refractive index, 298.15 K | refractive index, 303.15 K
[1] | 996.61 ± 6.3 | 994.87 ± 6.3 | – | – | –
[3] | – | – | 1.33308 ± 0.0011 | 1.33257 ± 0.0011 | 1.33198 ± 0.0011

refractive index, [2]
Conditions | Wavelength=404.7 nm | Wavelength=435.8 nm | Wavelength=486.1 nm | Wavelength=546.1 nm | Wavelength=587.6 nm | Wavelength=632.8 nm | Wavelength=644 nm | Wavelength=706.5 nm
293.15 K | 1.34276 ± 0.0011 | 1.34021 ± 0.0011 | 1.33716 ± 0.0011 | 1.33454 ± 0.0011 | 1.33313 ± 0.0011 | 1.33183 ± 0.0011 | 1.33153 ± 0.0011 | 1.33003 ± 0.0011
298.15 K | 1.34222 ± 0.0011 | 1.33968 ± 0.0011 | 1.33665 ± 0.0011 | 1.33402 ± 0.0011 | 1.33262 ± 0.0011 | 1.33132 ± 0.0011 | 1.33102 ± 0.0011 | 1.32954 ± 0.0011
303.15 K | 1.34161 ± 0.0011 | 1.33909 ± 0.0011 | 1.33604 ± 0.0011 | 1.33344 ± 0.0011 | 1.33203 ± 0.0011 | 1.33073 ± 0.0011 | 1.33044 ± 0.0011 | 1.32897 ± 0.0011

O [water] + CC(=O)O
Conditions | mass density, 298.15 K [kg/m3] | mass density, 303.15 K [kg/m3] | refractive index, 293.15 K | refractive index, 298.15 K | refractive index, 303.15 K
[4] | – | – | 1.33308 ± 0.0011 | 1.33257 ± 0.0011 | 1.33198 ± 0.0011
[6] | 996.61 ± 6.3 | 994.87 ± 6.3 | – | – | –

refractive index, [5]
Conditions | Wavelength=404.7 nm | Wavelength=435.8 nm | Wavelength=486.1 nm | Wavelength=546.1 nm | Wavelength=587.6 nm | Wavelength=632.8 nm | Wavelength=644 nm | Wavelength=706.5 nm
293.15 K | 1.34276 ± 0.0011 | 1.34021 ± 0.0011 | 1.33716 ± 0.0011 | 1.33454 ± 0.0011 | 1.33313 ± 0.0011 | 1.33183 ± 0.0011 | 1.33153 ± 0.0011 | 1.33003 ± 0.0011
298.15 K | 1.34222 ± 0.0011 | 1.33968 ± 0.0011 | 1.33665 ± 0.0011 | 1.33402 ± 0.0011 | 1.33262 ± 0.0011 | 1.33132 ± 0.0011 | 1.33102 ± 0.0011 | 1.32954 ± 0.0011
303.15 K | 1.34161 ± 0.0011 | 1.33909 ± 0.0011 | 1.33604 ± 0.0011 | 1.33344 ± 0.0011 | 1.33203 ± 0.0011 | 1.33073 ± 0.0011 | 1.33044 ± 0.0011 | 1.32897 ± 0.0011

Cc1ccccc1 [toluene] + CC(=O)O
Conditions | mass density, 293.15 K [kg/m3] | mass density, 298.15 K [kg/m3] | mass density, 303.15 K [kg/m3] | refractive index, 293.15 K | refractive index, 298.15 K | refractive index, 303.15 K
[4] | – | – | – | 1.49687 ± 0.0004 | 1.49406 ± 0.0004 | 1.49124 ± 0.0004
[6] | 866.75 ± 4 | 861.74 ± 4 | 856.81 ± 4 | – | – | –

refractive index, [5]
Conditions | Wavelength=404.7 nm | Wavelength=435.8 nm | Wavelength=486.1 nm | Wavelength=546.1 nm | Wavelength=587.6 nm | Wavelength=632.8 nm | Wavelength=644 nm | Wavelength=706.5 nm
293.15 K | 1.52597 ± 0.00048 | 1.51768 ± 0.00045 | 1.50826 ± 0.00043 | 1.50069 ± 0.00042 | 1.497 ± 0.00041 | 1.49379 ± 0.00041 | 1.49306 ± 0.00041 | 1.48975 ± 0.0004
298.15 K | 1.52295 ± 0.00048 | 1.51473 ± 0.00045 | 1.50537 ± 0.00043 | 1.49785 ± 0.00042 | 1.49419 ± 0.00041 | 1.49101 ± 0.00041 | 1.49028 ± 0.00041 | 1.48697 ± 0.0004
303.15 K | 1.51996 ± 0.00048 | 1.51177 ± 0.00045 | 1.50248 ± 0.00043 | 1.495 ± 0.00042 | 1.49137 ± 0.00041 | 1.4882 ± 0.00041 | 1.48748 ± 0.00041 | 1.48419 ± 0.0004
